Source: patent US9849134B2, “Method of improving cognition and social behavior in humans having deficits therein due to neurodegenerative disorders and compounds and compositions therefor” (The Board of Trustees of the Leland Stanford Junior …, priority 2014, dated 2017)
“Also recorded” adds a separate entry of the source. Counter-ions that a name gives are not always drawn. Like-named read-outs stand apart in the source and are kept apart here. * marks the point of attachment. Myristoyl = CCCCCCCCCCCCCC(=O)*

Experiments:
Thy1-APP^Lond/Swe+ mice = test: Working memory in Thy1-APP^Lond/Swe+ mice; assay type: in vivo; settings: acute s.c. 3 mg/kg
[1] = test system: humans with heart failure; settings: 200 mg twice daily for 2-12 months; cited from earlier work
β-arrestin pathway = β-arrestin pathway activation; assay type: cell-based
[2] = test system: Thy1-hAPP^Lond/Swe+ mice (APP); test: Social recognition test in APP mouse model of AD; assay type: in vivo
Protocol: (§1) Behavioral testing. […] Drug treatment. […] Betaxolol was injected sub-cutaneously (1 mg/kg) or in the MeA (30 nmole/side). PKI 14-22 amide was dissolved in 30% acetonitrile and injected in the MeA (2.75 nmole/side).

wild type mice = test: Cardiac safety after chronic treatment in wild type mice; assay type: in vivo; settings: 3 months
[3] = test system: Thy1-hAPP^Lond/Swe+ line transgenic mice; test: Activity chamber test (locomotor activity) in Thy1-hAPP^Lond/Swe+ mice; assay type: in vivo; settings: 0.3 and 1 mg/kg s.c., chronic, after 1 month
mice and rats = settings: cited from earlier work
5xFAD mice = test: Chronic dosing in 5xFAD mouse model of AD (memory, Morris-Water Maze, microglia, plaques); assay type: in vivo
[4] = Xamoterol concentration in plasma and brain after s.c. injection; assay type: in vivo; settings: mice; for concentration at 30 min / concentration at 1 h / concentration at 2 h: C57Bl/6, mouse, sc, 3 mg/kg s.c.
Protocol: Mice are euthanized at 3, 15, 30, 60, 120, 240 and 360 minutes after drug administration. Blood is drawn by cardiac puncture and collected in heparinized tubes. Plasma is immediately separated by centrifugation and stored at −80° C. until assay. For tissue distribution studies, tissue samples from the brain, heart, kidney, liver and spleen are collected 60 and 120 minutes after drug administration. The tissue samples are homogenized using 0.9% saline at a ratio of 1:2. The homogenates are stored at −80° C. until analysis. […] 2(2): p.

[5] = test system: Thy1-hAPP^Lond/Swe+ line transgenic mice; test: Fear conditioning test in Thy1-hAPP^Lond/Swe+ mice; assay type: in vivo; settings: 0.3 and 1 mg/kg s.c., chronic, after 2.5 months
pCREB [6] = test: Western blot of pCREB in medial amygdala of APP mice and WT controls; assay type: in vivo
Protocol: Molecular analyses. […] The quantitative analysis of stained cells was done in different brain regions according to the Mouse Brain Atlas. Cell counting was achieved using the unbiased-stereologic method. The total number of positive cells was quantified with the optical fractionator method using the StereoInvestigator software (MBF Bioscience, Williston, Vt., USA). The counting criteria were determined so as to obtain a mean coefficient of error ≦0.10. Analysis of pCREB was performed by western blot. […] It was reported that in Alzheimer's disease several phosphorylated proteins and transcription factors are preferentially located in the cytoplasm (vs. the nucleus) and are thus inefficient in inducing expression of genes important for learning and memory.

pCREB [7] = test: Western blot of pCREB in C57B1/6 mice; assay type: in vivo
Protocol: (§2) Molecular analyses. Immunohistochemistry was used to assess c-Fos, tyrosine hydroxylase (TH) and β1-ADR. The quantitative analysis of stained cells was done in different brain regions according to the Mouse Brain Atlas. Cell counting was achieved using the unbiased-stereologic method. The total number of positive cells was quantified with the optical fractionator method using the StereoInvestigator software (MBF Bioscience, Williston, Vt., USA). The counting criteria were determined so as to obtain a mean coefficient of error ≦0.10. Analysis of pCREB was performed by western blot.
We then tested whether pharmacological modulation of β1-ADR affects CREB phosphorylation in the MeA in the context of social learning.

C57B1/6 mice [8] = test: Social recognition tests (in-home cage social discrimination, 3-chamber) in C57B1/6 mice; assay type: in vivo
Protocol: as §1

c-Fos = test system: c-Fos
Protocol: as §2
Brain regions involved in social recognition have already been defined. Among them are the lateral septum, prefrontal cortex and MeA. […] We used c-Fos as a marker of neuronal activity and compared its expression in a group of C57B1/6 mice after social learning with a group of mice after both social learning and social recognition.

β2-ADR KO mice = settings: 3 mg/kg
Protocol: (§3) Behavioral testing. Social recognition was tested in two different tests: the 3-chamber social test developed by Nadler et al and the in-home cage social discrimination task developed by Macbeth et al. To differentiate between social recognition and recognition of non-social odors/objects non-social odor discrimination tests (olfactory habituation/dishabituation and olfactory recognition test) and an object recognition test were used.

C57BI/6 mice = settings: single dose 1 mg/kg
C57B1/6 mice [9] = test system: C57B1/6 mice
Protocol: as §3
We assessed the ability of C57B1/6 mice to recognize a previously-met conspecific after an acute subcutaneous injection of various doses of a selective β1-ADR antagonist, betaxolol (0.01, 0.1 and 1 mg/kg).

[10] = 1 mg/kg, 20 minutes prior to learning phase

Compound: O=C(NCCNCC(O)COc1ccc(O)cc1)N1CCOCC1 (racemic) [xamoterol, 1-p-Hydroxyphenoxy-3-beta-(morpholinocarbonamido)ethyl-amino-2-propanol hydrogen fumarate]
- Working memory deficit (Thy1-APP^Lond/Swe+ mice): rescued; also recorded: rescues working memory and social recognition deficits
- Side effects of chronic treatment in humans [1]: without any significant side effects
- Effect on β-arrestin pathway (β-arrestin pathway): no effect on the β-arrestin pathway
- Social recognition deficit of APP mice ([2]; 3 mg/kg systemic (s.c.), acute, prior to testing): rescued the social recognition deficit
- Preference for unfamiliar intruder over empty cup ([2]; 3 mg/kg, WT and APP mice): did not affect the preference
- Cardiovascular functions (BP, heart rate, EF, FS, HW/BW) (wild type mice; 3 mg/kg s.c., vs vehicle): did not develop pathological changes in cardiac functions; also recorded: did not show significant difference in cardiovascular functions
- Myocardial fibrosis (wild type mice; 3 mg/kg s.c., vs vehicle): did not induce cardiac fibrosis; also recorded: did not show significant difference
- Myocardial structure (Masson's trichrome staining) (wild type mice; 3 mg/kg, s.c.): did not produce changes in myocardial structure
- Hyperactivity phenotype (locomotor activity) [3]: dose-dependent reversal of hyperactivity phenotype
- Retrieval deficit in mice with NA deficiency (mice and rats; mice with NA deficiency): can be rescued
- Activated microglia and Aβ plaque clearance (5xFAD mice): increased activated microglia and Aβ plaque clearance
- Performance in the Morris-Water Maze (escape latency, time in thigmotaxis) (5xFAD mice): improved
- Declarative memory deficit (5xFAD mice; daily oral 6 mg/kg over 3 months, 6 mg/kg): rescued; also recorded: rescues the declarative and spatial memory deficits
- concentration at 30 min ([4]; brain, read-out: Brain): 168 ± 6.4 ng/mL
- concentration at 1 h ([4]; brain, read-out: Brain): 116 ± 9.1 ng/mL
- concentration at 2 h ([4]; brain, read-out: Brain): 125 ± 7.4 ng/mL
- concentration at 30 min ([4]; plasma, read-out: Plasma): 274 ± 75.9 ng/mL
- concentration at 1 h ([4]; plasma, read-out: Plasma): 45.1 ± 6.1 ng/mL
- concentration at 2 h ([4]; plasma, read-out: Plasma): 4.7 ± 0.7 ng/mL
- Passage of the BBB [4]: passes the BBB and reach the central nervous system
- Cognitive functioning (fear conditioning test) [5]: dose-dependent improvement in cognitive functioning
- Total pCREB in MeA of APP mice after social learning (pCREB [6]; APP mice): no significant increase
- pCREB in MeA of WT littermates after social learning (pCREB [6]; WT animals): induced an increase in pCREB
- Nuclear pCREB level in medial amygdala of APP mice (pCREB [6]; injection prior to social learning, nuclear fraction): significantly higher
- pCREB expression in mice brain (pCREB [7]; 3 mg/kg s.c., after 15 minutes): significant increase of pCREB
- pCREB expression in MeA vs baseline (pCREB [7]; 3 mg/kg, 5 min after injection): increased

Compound: CC(C)NCC(O)COc1ccc(CCOCC2CC2)cc1 (stereo not drawn) [betaxolol]
- Social recognition after injection in the MeA (C57B1/6 mice [8]; 30 nmole in the MeA): impairs social recognition
- Social recognition: preference for novel intruder over familiar one (C57B1/6 mice [8]; 0.01 mg/kg s.c.): showed this preference
- Social recognition: preference for novel intruder over familiar one (C57B1/6 mice [8]; 0.1 mg/kg s.c.): did not show a preference
- Social recognition: preference for novel intruder over familiar one (C57B1/6 mice [8]; 1 mg/kg s.c.): did not show a preference
- Long-term social memory, 24 hours after learning phase (C57B1/6 mice [8]; [10]): impaired long-term social memory
- Short term social recognition, dosing before learning phase (C57B1/6 mice [8]; [10]): impaired short term social recognition
- Social recognition, dosing before retrieval phase (C57B1/6 mice [8]; 1 mg/kg, 30 minutes prior to retrieval phase): did not impair social recognition
- Social recognition in 3-chamber test (C57B1/6 mice [8]; 1 mg/kg, systemic injection prior to learning phase): impairs social recognition
- Social learning: preference for unfamiliar mouse over empty cup (C57B1/6 mice [8]; 0.01 to 1 mg/kg): did not affect social learning
- Number of c-Fos positive cells in the MeA (c-Fos; 1 mg/kg prior to social recognition task): decreased the number of c-Fos positive cells in the MeA
- Number of c-Fos positive cells in the thalamus (PV) (c-Fos; injection prior to social recognition task): did not affect the number of c-Fos positive cells in the thalamus
- Percent of β1-ADR cells expressing c-Fos in MeA (c-Fos; vs vehicle-injected mice): significantly reduced
- Spatial navigation retrieval (mice and rats; wild-type mice and rats): produces spatial navigation retrieval deficit
- Social recognition in β2-ADR KO mice (β2-ADR KO mice): effectively impaired social recognition abilities
- Contextual memory (C57BI/6 mice): impairment of contextual memory
- pCREB expression in MeA after 5 minutes of social interaction (pCREB [7]; 1 mg/kg, 60 minutes before social learning): significantly decreased
- Ability to recognize a familiar odor or object over a new one (C57B1/6 mice [9]; 1 mg/kg): not affected
- Non-social odor habituation, dishabituation and recognition (C57B1/6 mice [9]; 1 mg/kg): did not impair non-social odor recognition
- Non-social odor recognition (heptanol / heptanol:octanol) (C57B1/6 mice [9]; betaxolol vs vehicle): did not impair non-social order recognition

Compound: CC(C)NCC(O)c1ccc(O)c(O)c1 (stereo not drawn) [isoprenaline]
- Effect on β-arrestin pathway (β-arrestin pathway): activates both cAMP and β-arrestin pathways

Compound: PKI 14-22 amide myristoylated (Myristoyl-SGRTGRRNA-NH2; SMILES CCCCCCCCCCCCCC(=O)N[C@@H](CO)C(=O)NCC(=O)N[C@@H](CCCNC(=N)N)C(=O)N[C@H](C(=O)NCC(=O)N[C@@H](CCCNC(=N)N)C(=O)N[C@@H](CCCNC(=N)N)C(=O)N[C@@H](CC(N)=O)C(=O)N[C@@H](C)C(N)=O)[C@@H](C)O; UniProt P61925 14-22, looked up, fragment) [PKA inhibitor]
- Preference for unfamiliar conspecific over empty cup after injection in the MeA (C57B1/6 mice [8]; 2.75 nmole in the MeA): did not affect
- Social recognition after injection in the MeA (C57B1/6 mice [8]; 2.75 nmole in the MeA): impaired the ability of mice to recognize between a new and familiar conspecific
